Among the test systems are SR; NCI-H226; KM-20L2; Malme-3M; ACHN; DLD-1; RXF 393; A498; DMS-273; CAKI-1; NCI-H522; RPMI-8226; Hs-578T; MDA-MB-435; DU-145; MCF7; PC-3; MDA-MB-231; NCI/ADR-RES; T47D.
What all share (experiment): NCI-60 cell line screen, 48 h

Molecules are shown by their SMILES.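 Where inhibition never reached the appropriate level, the endpoint shown equals the highest concentration tested. Otherwise, values were interpolated linearly from a five-concentration, 48-hour dose response in 96-well plates. Here, GI50 denotes the concentration required for 50% inhibition of growth.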 Calls of active or inactive are those of the source. Rule as the data show it: active = GI50 up to about 1.1 µM and inactive = higher. Bounds are passed on as bounds.

Regarding `Nc1ccc2c(c1)C(=O)N(O)C2=O`, the GI50 in the assay on SR, in the assay on NCI-H226, with KM-20L2, with Malme-3M, in the assay with ACHN and with DLD-1 was > 100 µM (inactive) each time. Besides, the GI50 in the assay on RXF 393 and in the assay with A498 was > 100 µM (inactive) each time.

With `Cc1ccc2c(c1)C(=O)N(N(C)C)CC(=O)N2`, the GI50 in the assay on SR, with DMS-273, with NCI-H226, in the assay with CAKI-1, in the assay with Malme-3M and in the assay with ACHN was > 100 µM (inactive) each time. For the same molecule, the GI50 in the assay on DLD-1, in the assay with NCI-H522, in the assay with A498 and in the assay with RPMI-8226 was > 100 µM (inactive) each time.

In the case of `CN(C)/C(=N\C#N)NCc1ccccc1`, the GI50 with DMS-273, with CAKI-1, with KM-20L2, in the assay with ACHN, with DLD-1 and in the assay with NCI-H522 was > 100 µM (inactive) each time.

Consider `O=c1ccc2nc3cc(Br)ccc3sc-2c1`, for which the GI50 is 33 µM (inactive) in the assay on SR; > 100 µM (inactive) in the assay on DMS-273; > 100 µM (inactive) in the assay on NCI-H226; 32.3 µM (inactive) in the assay with CAKI-1; > 100 µM (inactive) in the assay with KM-20L2; > 100 µM (inactive) in the assay on Malme-3M. The results for the GI50 with ACHN, with DLD-1 and in the assay on NCI-H522 were 57 µM (inactive), 82.8 µM (inactive) and 56.8 µM (inactive), respectively.

Consider `O=c1[nH]c(=O)n(C2CC(O)C(O)C(CO)O2)cc1F` (stereo not given), for which the GI50 in the assay with NCI-H226, in the assay with KM-20L2, in the assay with Malme-3M, in the assay with ACHN, with DLD-1 and with RXF 393 was > 100 µM (inactive) throughout. The GI50 in the assay on NCI-H522, in the assay with A498 and in the assay on RPMI-8226 was > 100 µM (inactive) in each case.

Turning to `CCCCC(=O)c1c(O)nc2sccn2c1=O`, the GI50 with Hs-578T, with SR, in the assay on MDA-MB-435, in the assay with DU-145, with NCI-H226 and in the assay with MCF7 was > 10 µM (inactive) throughout. The GI50 with CAKI-1, with Malme-3M, in the assay with ACHN, in the assay on PC-3, in the assay on MDA-MB-231 and in the assay with RXF 393 was > 10 µM (inactive) throughout. Moreover, the GI50 in the assay with NCI/ADR-RES, with T47D, with NCI-H522, with A498 and in the assay with RPMI-8226 was > 10 µM (inactive) throughout.

For `c1ccc2c(c1)SP1Sc3ccccc3P21` (stereo not given), the GI50 in the assay on DMS-273 was > 100 µM (inactive); in the assay with NCI-H226, > 45.7 µM (inactive); in the assay on MCF7, > 100 µM (inactive); with KM-20L2 it was > 78 µM (inactive); in the assay with Malme-3M it was > 100 µM (inactive); with DLD-1 it was > 92.5 µM (inactive). Besides, the GI50 in the assay with RXF 393 was 52.7 µM (inactive); in the assay on NCI/ADR-RES, > 100 µM (inactive); in the assay with NCI-H522, 39.6 µM (inactive); in the assay on A498, > 100 µM (inactive); in the assay on RPMI-8226 it was 59.6 µM (inactive).

`Cc1cccc(C(C)C)c1NC(=O)CC1Sc2ccccc2NC1=O` (stereo not given): the GI50 was 41 µM (inactive) in the assay on SR; 45.8 µM (inactive) with DMS-273; 77.8 µM (inactive) in the assay with NCI-H226; > 100 µM (inactive) in the assay on CAKI-1; > 100 µM (inactive) with KM-20L2; 31.8 µM (inactive) in the assay with Malme-3M. The GI50 in the assay on ACHN is > 100 µM (inactive); with DLD-1 it was > 100 µM (inactive); with RXF 393, 87.3 µM (inactive); with NCI-H522, 78.7 µM (inactive); in the assay on A498, 72.4 µM (inactive); in the assay with RPMI-8226, 57.4 µM (inactive).

In the case of `COC1CCC(O)C(CO)O1` (stereo not given), the GI50 is 45.3 µM (inactive) in the assay on SR; > 100 µM (inactive) with KM-20L2; 20.5 µM (inactive) in the assay with Malme-3M; > 100 µM (inactive) in the assay on ACHN; > 100 µM (inactive) with DLD-1; > 100 µM (inactive) in the assay on RXF 393. Further, in the assay with NCI-H522, the GI50 was 13.4 µM (inactive).

For the molecule `CN(C)C(=O)OCOC(=O)N(C)C`, the GI50 in the assay with DMS-273, in the assay with NCI-H226, with MCF7, in the assay with CAKI-1, with KM-20L2 and in the assay with Malme-3M was > 100 µM (inactive) throughout. Moreover, the GI50 in the assay on DLD-1, in the assay with RXF 393, in the assay on NCI/ADR-RES, in the assay with NCI-H522, in the assay on A498 and in the assay on RPMI-8226 was > 100 µM (inactive) throughout.

Take `O=C(O)C12CCCC(CCC1)C2`: the GI50 with DMS-273, in the assay on CAKI-1, in the assay on Malme-3M, in the assay on ACHN, in the assay with DLD-1 and in the assay with RXF 393 was > 100 µM (inactive) each time. The GI50 with NCI-H522, in the assay on A498 and in the assay with RPMI-8226 was > 100 µM (inactive) in each case.

For the molecule `O=C(CCC1C(=O)NC(=S)NC1=O)c1ccc2ccccc2c1`, the GI50 with SR, in the assay with DMS-273, in the assay with NCI-H226, in the assay with CAKI-1, in the assay with KM-20L2 and in the assay on Malme-3M was > 100 µM (inactive) in each case. Besides, the GI50 in the assay on ACHN is > 100 µM (inactive); in the assay on DLD-1, > 100 µM (inactive); with RXF 393, > 100 µM (inactive); in the assay with NCI-H522 it was 14.8 µM (inactive); in the assay on A498, > 100 µM (inactive).

As for `CC(NNC(=O)c1cc[n+]([BH2-]C#N)cc1)c1ccccc1F` (stereo not given), the GI50 with Hs-578T, with SR, in the assay with MDA-MB-435, in the assay on DU-145, with NCI-H226 and in the assay with MCF7 was > 100 µM (inactive) throughout. For the same molecule, the GI50 in the assay with CAKI-1, in the assay with Malme-3M, with ACHN, with PC-3, in the assay with MDA-MB-231 and in the assay on RXF 393 was > 100 µM (inactive) each time. Moreover, the GI50 is > 100 µM (inactive) with NCI/ADR-RES; > 100 µM (inactive) in the assay with T47D; > 100 µM (inactive) in the assay with NCI-H522; 3.4 µM (inactive) in the assay with A498; > 100 µM (inactive) with RPMI-8226.

In the case of `COc1cc(C2c3cc4c(cc3[C@@H](Nc3ccc5c(c3)OCO5)C3COC(=O)[C@H]23)OCO4)cc(OC)c1O` (stereo not given in full), the GI50 with DMS-273 was 0.105 µM (active); in the assay on NCI-H226 it was 0.217 µM (active); with MCF7, 0.175 µM (active); in the assay with CAKI-1 it was 0.152 µM (active); in the assay on KM-20L2, 2.24 µM (inactive); with Malme-3M, 1.42 µM (inactive). Further, the GI50 with DLD-1 is 1.55 µM (inactive); in the assay on RXF 393, 1.09 µM (active); in the assay on NCI/ADR-RES it was 0.482 µM (active); in the assay on NCI-H522, 1.06 µM (active); in the assay on A498, 0.333 µM (active); in the assay on RPMI-8226, 0.774 µM (active).

(Values after ChEMBL document CHEMBL1201862, “PubChem BioAssay data set” (2004).)
